Several values for one entry are separate records, joined by “and”; a condition that tells them apart may be missing. Equal entries are not always repeated.
How the values were obtained:
[1] = molecular target: T1, Histidine--tRNA ligase (Leishmania infantum, UniProt A4I591); assay: Leishmania infantum Histidine tRNA synthetase (LdHisRS); assay type: functional
T1 sequence (A4I591 whole entry): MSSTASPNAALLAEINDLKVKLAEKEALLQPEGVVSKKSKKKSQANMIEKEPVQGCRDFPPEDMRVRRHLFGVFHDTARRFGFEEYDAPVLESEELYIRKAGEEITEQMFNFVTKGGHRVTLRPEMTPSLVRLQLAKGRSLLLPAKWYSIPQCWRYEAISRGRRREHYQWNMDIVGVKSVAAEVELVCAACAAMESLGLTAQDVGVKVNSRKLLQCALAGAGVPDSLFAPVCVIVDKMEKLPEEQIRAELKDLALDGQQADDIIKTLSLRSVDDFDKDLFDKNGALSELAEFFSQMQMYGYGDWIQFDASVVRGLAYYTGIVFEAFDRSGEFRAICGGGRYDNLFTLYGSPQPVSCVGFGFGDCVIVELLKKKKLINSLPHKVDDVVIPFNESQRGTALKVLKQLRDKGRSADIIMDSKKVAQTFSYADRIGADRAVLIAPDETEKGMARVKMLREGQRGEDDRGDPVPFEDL

[2] = microbe, parasite or virus in culture; conditions: Mycobacterium tuberculosis, 96 h, read-out: pIC50 (converted)
[3] = microbe, parasite or virus in culture; conditions: Mycobacterium tuberculosis, 72 h, read-out: pIC50 (converted)

Compound	IC50 [1]	IC50 [2] [µM]	IC50 [3] [µM]
c1cncc(-c2ccc3c(c2)CCC32CCN(Cc3nccs3)CC2)c1	75.2 µM and 52.4 µM	36.3	36.1
c1ccc(Oc2ccc(OC34CCCN(CC3)C4)cc2)cc1 (stereo not given)	39.4 µM and 40.6 µM	40.7	23.7
c1ccc(Oc2cccc(OC34CCCN(CC3)C4)c2)cc1 (stereo not given)	53.2 µM and 46.4 µM	15.9	18.1
O=C(c1cc(-c2ccco2)cs1)N1CCCC1	> 100 µM and 53 µM	33	8
CCCN1C[C@H]2CC[C@@H]1CN(Cc1ccc(-n3cccn3)cc1)C2	33.2 µM and 35 µM	21.4	4.84
Cc1nc(CN2CCc3nc(NC(C)C)nc(C)c3C2)cs1	64.5 µM and 57.7 µM	> 50.1	> 50.1
Cc1ccc(S(=O)(=O)N2CCc3nc(C4CCNCC4)ncc3C2)cc1	> 100 µM and 97.1 µM	6.39	> 50.1
CN(CC1CCN(c2ccccc2)C1)c1ccc(Cn2ccnc2)cn1 (stereo not given)	91.9 µM and 98.7 µM	27.4	27.7
COc1cccn(CC(=O)N(C)CCC2CCOCC2)c1=O	> 100 µM	> 50.1	–
Cc1ccccc1N1CCN(c2nc(N(C)C)nc3c2CCNC3)CC1	55.3 µM and 91.3 µM	27	26
CCCc1nc(N(C)CCN2CCCCCC2)c2cnn(C)c2n1	41.4 µM and 39.5 µM	> 50.1	28.3
Fc1cccc(N2C[C@H]3CCN(c4cccnc4)C[C@H]3C2)c1	40.6 µM and 35.1 µM	> 50.1	45.2
CSc1ccc(C(CN)N2CCc3sccc3C2)cc1 (stereo not given)	73.8 µM and 73.2 µM	24.1	27.4
CCCc1ccc(OC23CCCN(CC2)C3)c(OC)c1 (stereo not given)	38 µM and 39.5 µM	22.7	23.5
CN(C)c1nc2c(c(N3CCc4ccccc4C3)n1)CCNC2	28.8 µM and 22.8 µM	> 50.1	31.3
O=C(CCn1ccc2cc(Br)ccc21)NCc1ccc(C(=O)O)cc1	> 100 µM and 66.9 µM	–	–
NC(=O)CCS(=O)(=O)Cc1ccc(OCC(F)(F)F)cc1	> 100 µM and 68.4 µM	–	–
Cn1nc2c(cc1=O)CN(c1nc3ccccc3s1)CC2	72.4 µM and 80.9 µM	–	–
CS(=O)(=O)CCOCCNc1cncc(Br)c1	> 100 µM	–	–
O=C(Cc1csc(-c2ccco2)n1)N1CCN(c2cnccn2)CC1	53.2 µM and 34.3 µM	–	–
COc1cc(CC(=O)Nc2cccc(C(=O)N(C)C)n2)ccc1C	24.8 µM and 36.9 µM	–	–
Cn1ncc(-c2cc(-c3cccc(O)c3)nc(N)c2C#N)c1C1CC1	61.2 µM and 76.8 µM	–	–

Compound	IC50 [1]	IC50 [2] [µM]	IC50 [3] [µM]
CN(C(=O)CN1CCc2nn(C)c(=O)cc2C1)c1nccs1	95.3 µM and > 100 µM	–	–
Cc1nn(CCC#N)c(C)c1[C@@H]1C=C[C@@H](NCc2cccc(Cl)c2)C1	> 100 µM	–	–
O=C(CCN1CCCC1)N1CC[C@@H](c2ccc3ccccc3c2)[C@H](O)C1	63.5 µM and 54.7 µM	–	–
Cn1cccc(NC(=O)NCCc2cccc(O)c2)c1=O	15.5 µM and 13 µM	–	–
CC(=O)NCC(=O)N1Cc2nccn2CC(COc2cccnc2)C1 (stereo not given)	> 100 µM	–	–
O=C1CCC(C(=O)Nc2ccc(=O)n(Cc3ccc(Cl)c(Cl)c3)c2)N1 (stereo not given)	10.1 µM and 9.92 µM	–	–
Cc1ccc(N2CCc3sc(C(=O)N4CCOCC4)cc32)nn1	> 100 µM	–	–
CCCn1cc(NC(=O)c2cccc3cccnc23)ccc1=O	40.1 µM and 37.9 µM	–	–
COCc1ncc(-c2nccn2CCS(C)(=O)=O)cn1	> 100 µM	–	–
Cc1ccc(-c2noc(CN3CCc4nn(C)c(=O)cc4C3)n2)cc1	29.8 µM and 30.4 µM	–	–
CCCn1nc2c(cc1=O)CN(Cc1nc(CCOC)no1)CC2	57.7 µM and 67.2 µM	–	–
CN(C)CCn1c(=O)oc2ccc(NC(=O)N3CCCCCC3)cc21	> 100 µM	–	–
COc1ccc2c(c1)CC(NCc1cccc(OCC(N)=O)c1)CC2 (stereo not given)	17 µM and 23.6 µM	–	–
CN(CCOc1ccccc1)C(=O)Nc1cccn(C)c1=O	15 µM and 15.4 µM	–	–
NC(=O)NC(=O)CCN1CCN(CC2CC2)c2ccccc21	> 100 µM	–	–
O=C(NC[C@H]1CCCC[C@H]1O)c1ccc2nc(-c3ccco3)[nH]c2c1	21 µM and 25.5 µM	–	–
CN(C)C(=O)CN1CCCC1c1cccc(Cc2ccccc2F)n1 (stereo not given)	61.1 µM and 51.2 µM	–	–
COCCN1CCCn2cnc(CNC3CCCC3)c2C1	9.13 µM and 12.8 µM	–	–
Cc1cs/c(=N/C(=O)c2csc(NCC(C)C)n2)[nH]1	28.6 µM and 46.9 µM	–	–
Cc1c(Cl)cccc1NC(=O)Cn1cc(C(=O)O)ccc1=O	> 100 µM	–	–
NCc1ccnc(Oc2ccccc2)c1	39.2 µM and 30.9 µM	–	–
CC(=O)N1CCN(C(=O)CNc2ccc3ncsc3c2)CC1	6.78 µM and 9.49 µM	–	–

Compound	IC50 [1]	IC50 [2] [µM]	IC50 [3] [µM]
O=C(Cc1cnc(-c2c(Cl)cccc2Cl)s1)N1CCOCC1	> 100 µM	–	–
Cc1noc(C)c1C(=O)N1CCC(Nc2cccnn2)CC1	> 100 µM	–	–
CCC1CCc2c(c3ccccc3[nH]c2=O)O1 (stereo not given)	> 100 µM	–	–
Cc1ccccc1-c1noc(CN2CCc3nn(C)c(=O)cc3C2)n1	25.2 µM and 21.2 µM	–	–
Cc1nc(CN2CCCC2c2ccsc2)nc2ccccc12 (stereo not given)	56 µM and 44.1 µM	–	–
CC(Nc1nc(-c2ccncc2)nc2c1CCNC2)c1ccccc1 (stereo not given)	43.4 µM and 46.8 µM	–	–
CCN(C(=O)c1nc2c(s1)CCCN2Cc1ccccc1)C(C)C	22.3 µM and 17.3 µM	–	–
CC(C)N(C)S(=O)(=O)c1ccc2c(c1)CCN(C(=O)c1ccccn1)C2	37 µM and 42.8 µM	–	–
Cc1cc(C)cc(OCCC(=O)NC2CC(=O)N(C)C2)c1 (stereo not given)	> 100 µM	–	–
CC(O)CNC(=O)NCc1ccc(N2CCNC(=O)C2)cc1 (stereo not given)	> 100 µM and 58.3 µM	–	–
Cc1nnc2n1CCN(C(=O)c1ccc(Cn3cccc3)cc1)C2	51.2 µM and 44 µM	–	–
CC(C)c1ncc2c(n1)CN(Cc1nc(Cc3ccccc3)no1)CC2	> 100 µM	–	–
O=C1CC2(CCN(Cc3ccc4cccc(O)c4n3)CC2)CN1	46.2 µM and 45.6 µM	–	–
Nc1cccnc1N1CCCCCC1	16.4 µM and 17.4 µM	–	–
c1cc(-c2nnc3sc(CCN4CCCC4)nn23)ccn1	> 100 µM	–	–
Cc1nnc(N2CCc3cnc(C(C)C)nc3C2)c(C#N)c1C	> 100 µM	–	–
COc1ccc(C(=O)N2CCN(c3cc(CCN)nc(C)n3)CC2)cc1	49.3 µM and 51.2 µM	–	–
Cc1nnc(NCC(c2ccco2)N(C)C)c(C#N)c1C (stereo not given)	24.8 µM and 24.1 µM	–	–
Cc1c(C(=O)N2CCC(O)(CN(C)C)C2)c2cc(O)ccc2n1C (stereo not given)	> 100 µM	–	–
Cc1nn(-c2ccccn2)c(C)c1[C@@H]1C=C[C@@H](NC(=O)NC(C)C)C1	> 100 µM and 88 µM	–	–
CN1CCCN(C(=O)c2nc3c(s2)CCCN3CC2CC2)CC1	77.9 µM and 55.6 µM	–	–
CCC1=NOC(CNCc2cnc(-c3ccccc3C)s2)C1 (stereo not given)	> 100 µM	–	–

Compound	IC50 [1]	IC50 [2] [µM]	IC50 [3] [µM]
Cn1cccc(NC(=O)NCc2cccc(CO)c2)c1=O	> 100 µM	–	–
Cn1cnnc1C1CCCN(C(=O)c2cc(C3CC3)on2)C1 (stereo not given)	> 100 µM	–	–
Cc1nnc(NCc2ccccc2Cl)c(C#N)c1C	24.6 µM and 31.1 µM	–	–
COCCN1CCCC(C)(c2cc(O)[nH]n2)C1 (stereo not given)	> 100 µM	–	–
O=C(c1cc(=O)n(-c2ccccc2)[nH]1)N1CCCC(c2ccn[nH]2)C1 (stereo not given)	49.3 µM and 44.5 µM	–	–
CC1=C(C#N)C(=O)NC(=O)/C1=C\c1c(C)nn(-c2ccc(Cl)cc2)c1O	> 100 µM	–	–
CC(C)c1nnc(N2C[C@@H]3CC[C@H](C2)N(Cc2ccccc2)C3)s1	35.5 µM and 34.5 µM	–	–
CS(=O)(=O)N1CCCC(Cc2ccnc3ccncc23)CC1 (stereo not given)	21.6 µM and 22.8 µM	–	–
COc1nccnc1-c1cc(NC2CCNCC2)nc2[nH]ccc12	34.1 µM and 29.8 µM	–	–
Cc1ccccc1CC(C)(C)NC(=O)c1cccc(OCC(N)=O)c1	77.2 µM and > 100 µM	–	–
O=C1NCC(C(=O)Nc2ccc(=O)n(Cc3ccccc3Cl)c2)N1 (stereo not given)	12.7 µM and 15.3 µM	–	–
COc1ccccc1C1(CNCc2ccc(C#N)cc2)CCOCC1	50.4 µM and 50.9 µM	–	–
Cc1noc(C)c1CNc1c(N2CCCC2)cccc1N1CCCC1	> 100 µM	–	–
Cc1ccc(CNC(=O)c2nc3c(o2)CN(C(=O)c2cccnc2)C3)o1	37.2 µM and 54.7 µM	–	–
Cn1ccnc1Sc1ccc(N)cn1	> 100 µM	–	–
O=C(CCc1n[nH]c2c1CCCC2)N1C[C@@H]2CC[C@H](C1)N(CC1CC1)C2	44.9 µM and 35.8 µM	–	–
O=C1CC(c2ccc(C(=O)O)cc2)c2ncn(-c3ccc(F)cc3)c2N1 (stereo not given)	15 µM and 21.9 µM	–	–
O=C1CC(c2ccc(C(=O)O)cc2)c2ncn(-c3ccc(Cl)cc3)c2N1 (stereo not given)	15.7 µM and 12.4 µM	–	–
CC1=C(C#N)C(=O)NC(=O)/C1=C\c1c(C)nn(-c2ccc(C)cc2)c1O	58.7 µM and 48 µM	–	–
Cc1csc(CN(C)C(C)C(=O)N2CCc3ccccc3C2)n1 (stereo not given)	> 100 µM	–	–

— ChEMBL document CHEMBL3988442, “University of Dundee, Small-Polar-MMV Screening Library” (2021)
